This data set in a line: paclitaxel release profile from block-copolymer-coated stents in PBS with 0.5% Tween 20. Format: physicochemical. Particulars: release in PBS with 0.5% Tween 20, FIG. 1. The text has this: A solution is provided that contains the following: 99 wt % solvent system, 0.25 wt % paclitaxel and 0.75 wt % block copolymer. The copolymer is synthesized using known techniques such as those described in U.S. Pat. No. 5,741,331, U.S. Pat. No. 4,946,899 and U.S. Ser. No. 09/734,639. The solvent system consists of tetrahydrofuran (THF) and toluene, which are provided in varying ratios in this example. The solution is provided by (1) mixing the paclitaxel and tetrahydrofuran, (2) adding the copolymer, (3) adding the toluene, (4) thoroughly mixing (e.g., overnight), and (5) filtering.
The solution is then placed in a syringe pump and fed to a spray nozzle. A stent is mounted onto a holding device parallel to the nozzle and, if desired, rotated to ensure uniform coverage. Depending on the spray equipment used, either the component or spray nozzle can be moved while spraying such that the nozzle moves along the component while spraying for one or more passes.
After a coating is formed in this fashion, it is dried, for example, by placing it in a preheated oven for 30 minutes at 65° C., followed by 3 hours at 70° C.
Three coated stents are formed in this manner using (in addition to 0.25 wt % paclitaxel and 0.75 wt % block copolymer) the following solvent species in the following relative amounts: (T) 99 wt % THF, (2) 75 wt % THF, 24 wt % toluene, (3) 50 wt % THF, 49 wt % toluene, (4) 25 wt % THF, 74 wt % toluene, (5) 5 wt % THF, 94 wt % toluene. Release rate as a function of time and cumulative release as a function of time (referred to herein as the “release profile”) were then measured in PBS with 0.5% Tweeng 20 (polyoxyethylene(20) sorbitan monolaurate) available from Sigma-Aldrich. The results are graphically illustrated in FIG. 1.

As for `CC(=O)O[C@H]1C(=O)[C@@]2(C)[C@H]([C@H](OC(=O)c3ccccc3)[C@]3(O)C[C@H](OC(=O)[C@H](O)[C@@H](NC(=O)c4ccccc4)c4ccccc4)C(C)=C1C3(C)C)[C@]1(OC(C)=O)CO[C@@H]1C[C@@H]2O` [paclitaxel], the “paclitaxel release (release profile)” value (coating formed from higher THF-to-toluene ratios in the solvent system) is on record as “more accelerated paclitaxel release” and the “paclitaxel release (release profile)” value (coating formed from lower THF-to-toluene ratios in the solvent system) is given as “more extended paclitaxel release”. In addition, for the setting “stent coating of 0.25 wt % paclitaxel and 0.75 wt % block copolymer, THF solvent system with toluene added”, the “paclitaxel release (release rate and cumulative release as a function of time)” value is listed as “reduced by the addition of toluene”.

(Values after patent US20030203000A1, “Modulation of therapeutic agent release from a polymeric carrier using solvent-based techniques” (priority 2002, published 2003).)
